The text below walks through data of patent US20110021507A1, “INHIBITING ANTIPSYCHOTIC-INDUCED WEIGHT GAIN” (Theracos, Inc., priority 2009, published 2011).

Data set [1] has as its system cardiac receptors. Particulars: cited from earlier work.
For data set [2], the system named is muscarinic receptor. Particulars: cited from earlier work.
The test system of data set [3] is cortical receptors. Particulars: cited from earlier work.
For data set [4] the following is noted: patients being administered olanzapine; cited from earlier work.
A short description of data set [5]: Olanzapine-induced weight gain in a rat model (Alzet minipumps). The class given is in vivo, Wistar-Han female rats. Particulars: OLZ 10 mg/kg/day; for effect on weight gain (main effect of Treatment, 2-way repeated measures ANOVA): OLZ vs VEH p=0.042, OLZ vs OLZ+TZP p=0.01, TZP 5 mg/kg/day. Here is the method: Arrow indicates pump implantation and solid bar over the x-axis indicates the drug treatment interval. Telenzepine was administered at a dose of 5 mg/kg/day. […] The solid line indicates the effect of OLZ administered alone (OLZ-Induced weight gain), while dashed lines indicate groups receiving TZP, either alone (dashed line) or co-administered with the 10.0 mg/kg OLZ dose (dot-dash-dot line). The dotted line indicates the weight gain in animals receiving only Vehicle treatments. […] The rats were divided into the following four groups: Group 1—Control: Vehicle (NMP:DMSO:PEG) alone Group 2—OLZ (10 mg/kg/day) alone Group 3—TZP (5 mg/kg/day) alone Group 4—OLZ (10 mg/kg/day)+TZP (5 mg/kg/day) […] Two 2-way repeated measures ANOVAs were run: 1) Comparing No Treatment (VEH) to OLZ alone (addressing the question of whether or not OLZ induced weight gain), 2) Comparing OLZ alone to OLZ+TZP (addressing the question of whether or not TZP co-administration prevented OLZ-Induced weight gain).

For data set [6] the following is noted: at 90 degrees; cited from earlier work.

SMILES strings stand for the structures.

In the case of `Cc1scc2c1N(C(=O)CN1CCN(C)CC1)c1ccccc1NC2=O` [(+) form of telenzepine], the “factor by which the (+) form is more potent than the (−) form” value in data set [1] is 50. For the same compound, in data set [2], the antimuscarinic activity result is reported as “potent antimuscarinic activity”. In addition, in data set [3], the “factor by which the (+) form is more effective than the (−) isomer” value is on record as 400.

On to `Cc1scc2c1N(C(=O)CN1CCN(C)CC1)c1ccccc1NC2=O` [(−) form], for which the antimuscarinic activity entry in data set [2] is on record as “considerably less active”.

Take `Cc1cc2c(s1)Nc1ccccc1N=C2N1CCN(C)CC1` [Olanzapine, 2-methyl-4-(4-methyl-1-piperazinyl)-10H-thieno[2,3-b][1,5]benzodiazepine]: the “patients experiencing bodyweight gain of greater than 7%” value in data set [4] was no more than 30%. In data set [5], the “effect on weight gain (main effect of Treatment, 2-way repeated measures ANOVA)” value was “induced a significant amount of weight gain over No Treatment controls”. Further, the “difference in weight gain versus Vehicle treated rats” value in data set [5] (Treatment Day 12 (peak OLZ-induced gain), TZP 5 mg/kg/day by minipump) stood at 6.2%.

As to `Cc1scc2c1N(C(=O)CN1CCN(C)CC1)c1ccccc1NC2=O` [Telenzepine, 4,9-Dihydro-3-methyl-4-[(4-methyl-1-piperazinyl)acetyl]-10H-thieno[3,4-b][1,5]benzodiazepin-10-one], the “half time of interconversion of the two forms” value in data set [6] is recorded as “approximately 200 hours”. The “effect on weight gain (main effect of Treatment, 2-way repeated measures ANOVA)” value in data set [5] is on record as “significant reduction in OLZ-induced weight gain”.
